Measured values from patent US20050090505A1, “Methods of reducing risk of infection from pathogens” (priority 2003, published 2005).

Experiments:
[1] = target: T1, airway epithelial sodium currents (sodium channel) (UniProt A0A8I3MKE6+A0A8I3Q679+Q95165); assay: Sodium channel blocking activity: inhibition of short circuit current (ISC) in airway epithelial monolayers mounted in Ussing chambers; type: cell-based, human, dog, sheep or rodent; settings: for Fold Amiloride** (PSA 4022 = 100): relative potency for PSA 4022 = 100 using EC50 from PSA 4022 in same run; for EC50: Selected Alaphatic Pyrazinoylguanidines (Formula II), mean ± spread, read-out: EC50
T1 sequence (A0A8I3MKE6 1-646): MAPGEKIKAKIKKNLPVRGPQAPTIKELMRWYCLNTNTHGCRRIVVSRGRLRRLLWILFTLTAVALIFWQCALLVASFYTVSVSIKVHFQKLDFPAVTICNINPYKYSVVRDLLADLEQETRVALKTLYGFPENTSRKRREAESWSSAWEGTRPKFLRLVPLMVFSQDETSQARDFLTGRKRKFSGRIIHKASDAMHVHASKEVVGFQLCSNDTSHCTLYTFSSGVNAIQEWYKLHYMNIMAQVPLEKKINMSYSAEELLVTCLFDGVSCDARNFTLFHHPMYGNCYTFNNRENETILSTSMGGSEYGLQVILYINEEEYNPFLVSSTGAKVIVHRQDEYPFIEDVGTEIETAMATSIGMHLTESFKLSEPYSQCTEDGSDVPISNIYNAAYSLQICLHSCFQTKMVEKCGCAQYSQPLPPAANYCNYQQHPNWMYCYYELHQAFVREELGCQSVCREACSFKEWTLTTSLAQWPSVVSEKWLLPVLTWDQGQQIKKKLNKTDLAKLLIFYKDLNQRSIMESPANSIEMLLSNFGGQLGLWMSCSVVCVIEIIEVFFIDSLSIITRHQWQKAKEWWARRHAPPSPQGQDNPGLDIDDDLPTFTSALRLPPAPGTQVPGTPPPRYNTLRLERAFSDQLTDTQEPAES
T1 sequence (A0A8I3Q679 1-649): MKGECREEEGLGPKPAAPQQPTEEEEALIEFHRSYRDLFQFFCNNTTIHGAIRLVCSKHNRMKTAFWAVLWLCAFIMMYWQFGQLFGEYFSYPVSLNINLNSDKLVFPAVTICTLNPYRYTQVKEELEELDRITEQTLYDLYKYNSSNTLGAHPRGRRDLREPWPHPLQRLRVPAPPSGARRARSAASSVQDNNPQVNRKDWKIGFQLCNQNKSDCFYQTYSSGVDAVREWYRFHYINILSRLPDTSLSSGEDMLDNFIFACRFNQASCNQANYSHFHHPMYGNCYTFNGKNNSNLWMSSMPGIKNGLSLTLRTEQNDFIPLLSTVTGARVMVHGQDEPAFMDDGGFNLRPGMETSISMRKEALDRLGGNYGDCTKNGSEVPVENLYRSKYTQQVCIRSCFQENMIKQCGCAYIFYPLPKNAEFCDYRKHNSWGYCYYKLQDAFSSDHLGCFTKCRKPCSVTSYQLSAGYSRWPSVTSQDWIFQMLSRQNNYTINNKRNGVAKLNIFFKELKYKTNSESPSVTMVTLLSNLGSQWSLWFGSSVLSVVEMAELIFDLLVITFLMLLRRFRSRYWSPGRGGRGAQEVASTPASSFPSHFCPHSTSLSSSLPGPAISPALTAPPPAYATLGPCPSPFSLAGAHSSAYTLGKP
T1 sequence (Q95165 1-641): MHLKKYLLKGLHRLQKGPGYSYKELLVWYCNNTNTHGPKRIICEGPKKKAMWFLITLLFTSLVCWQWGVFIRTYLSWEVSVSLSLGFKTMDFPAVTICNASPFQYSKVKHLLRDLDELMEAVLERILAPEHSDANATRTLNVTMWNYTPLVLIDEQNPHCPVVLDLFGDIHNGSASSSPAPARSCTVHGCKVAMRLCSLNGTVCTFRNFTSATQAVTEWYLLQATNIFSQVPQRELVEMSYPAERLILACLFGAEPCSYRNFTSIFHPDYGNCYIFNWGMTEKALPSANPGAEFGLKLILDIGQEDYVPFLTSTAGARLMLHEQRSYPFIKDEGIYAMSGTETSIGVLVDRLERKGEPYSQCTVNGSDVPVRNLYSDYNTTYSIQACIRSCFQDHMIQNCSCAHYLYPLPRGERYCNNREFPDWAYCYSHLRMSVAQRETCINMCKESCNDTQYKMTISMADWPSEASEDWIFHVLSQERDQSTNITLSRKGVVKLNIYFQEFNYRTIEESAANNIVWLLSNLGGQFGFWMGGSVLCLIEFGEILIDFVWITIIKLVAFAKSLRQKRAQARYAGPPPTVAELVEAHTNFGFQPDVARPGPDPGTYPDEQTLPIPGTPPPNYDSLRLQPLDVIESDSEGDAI
Procedure, shortened: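 Human, dog, sheep or rodent airway epithelial cells were grown at air-liquid interface and mounted in Ussing chambers bathed in Krebs Bicarbonate Ringer. Drug was added lumenally in half-log cumulative doses from 1×10^−11 M to 3×10^−5 M, with inhibition of ISC recorded for IC50. Reversibility is percent return to baseline current after three drug-free washes.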

| SMILES | Fold Amiloride** (PSA 4022 = 100) ([1]; Capped Pyrazinoylguanidines) | melting point | Fold Amiloride** (PSA 4022 = 100) ([1]; Alaphatic Pyrazinoylguanidines) | EC50 [1] |
| --- | --- | --- | --- | --- |
| N=C(NCCCCc1ccc(OCCCc2ncc[nH]2)cc1)NC(=O)c1nc(Cl)c(N)nc1N [compound 23022, N-(3,5-diamino-6-chloropyrazine-2-carbonyl)-N′-(4-{4-[3-(1H-imidazol-2-yl)propoxy]phenyl}butyl)guanidine] | 79 ± 15 | 123 to 126 °C (dec.) |  |  |
| CC(C)(C)OC(=O)NCCCCCCCCCNC(=N)NC(=O)c1nc(Cl)c(N)nc1N [compound 19484, {9-[N′-(3,5-diamino-6-chloropyrazine-2-carbonyl)guanidino]nonyl}-carbamic acid tert-butyl ester] |  | 187 to 189 °C | 12 | 0.066 µM |
| CC(C)(C)OC(=O)NCCCCCCCCNC(=N)NC(=O)c1nc(Cl)c(N)nc1N [compound 19156, {8-[N′-(3,5-diamino-6-chloropyrazine-2-carbonyl)guanidino]octyl}carbamic acid tert-butyl ester] |  | 189 to 191 °C | 18 ± 2 | 0.046 ± 0.02 µM |
| CC(C)[C@H](NS(=O)(=O)c1ccc(CCCCNC(=N)NC(=O)c2nc(Cl)c(N)nc2N)cc1)C(N)=O.Cl [compound 19008, (2S)-(4-{4-[N′-(3,5-diamino-6-chloropyrazine-2-carbonyl)guanidino]-butyl}benzenesulfonylamino)-3-methylbutyramide] | 54 ± 6 | 154 to 156 °C (dec.) |  |  |
| CC(C)(C)OC(=O)NCCCCCCCCCCCCNC(=N)NC(=O)c1nc(Cl)c(N)nc1N [compound 23776, {12-[N′-(3,5-diamino-6-chloropyrazine-2-carbonyl)guanidino]dodecyl}-carbamic acid tert-butyl ester] |  | 154 to 156 °C | 7 | 0.075 µM |
